# Read-outs that look alike come from different tables or passages of the source.
# Target: T1, hCB2R(D80N) (Homo sapiens, UniProt P34972, D80N)
# T1 construct: expressed in transfected cells; host or cells: neurons of the right striatum of male Wistar rats, transduced in vivo with the AAV2/7-CaMKII0.4-intron-hCB2R(D80N) vector
# Format: in vivo
# Details: for reduction of the normalized AUC between 20 and 60 min p.i.: GW405833 i.v. 20 min after radioligand
# Excerpt: In a proof-of-concept study, the specific binding to the human CB2R and the ability to cross the blood–brain barrier of [^18F]RM365 in vivo was investigated by PET imaging experiments using an established rat model with a local overexpression of hCB2R(D80N) in the right striatum (target region).[32],[66] Exemplary images of the averaged time frames of the PET study, as well as the TACs of the target region and both reference regions on the contralateral site and the cerebellum, are shown in Figure 10. […] However, the TAC peak value was four to five times lower in the reference regions, which was reflected by the seven to eight times lower accumulated activity over time expressed as the area under the curve (AUC) of [^18F]RM365 (Table 3). The high signal-to-background ratio is reflected by a SUVr of 15 ± 5 and 20 ± 5 for the target region-to-contralateral and -cerebellum ratios, respectively, at 60 min p.i. […] Additionally, we investigated the reversibility of the binding toward the human CB2R receptor in vivo in displacement studies by administering the CB2R-specific agonist GW405833 into the tail vein 20 min after the radioligand injection into the hCB2R(D80N)-overexpressing rat model (Figure 10B, Table 3). […] The signal in the contralateral side (p-value = 0.1621, two-way ANOVA) and in the cerebellum (p-value = 0.6177, two-way ANOVA) was not affected by the treatment over time with GW405833 (Figure S6), underlining the eligibility of these reference regions.
# In vivo biodistribution studies of [^18F]RM365 were performed in female CD-1 mice (n = 4, 31 ± 3 g) and female Wistar rats (n = 4, 150 ± 11 g). For the uptake studies into the brain, male Wistar rats carrying the stereotactically injected AAV2/7-CaMKII0.4-intron-hCB2R(D80N) (right striatum) and AAV2/7-CaMKII0.4-intron-3flag-eGFP (control/contralateral, left striatum) were used (n = 6; bodyweights were 260 ± 11 g). Data were assessed by dynamic small animal PET (Nanoscan, Mediso, Budapest, Hungary) in 60 min recordings, followed by T1-weighted (GRE, TR/TE = 15.0/2.4 ms, 252/252, FA = 25°) MR imaging with whole-body coils for anatomical correlation and attenuation correction.
# The PET scans were performed 3−4 months after the stereotactic injections. Animals were initially anesthetized with 5% isoflurane and placed on a thermostatically heated animal bed, where anesthesia was maintained with 2% isoflurane in 60% oxygen/38% room air. […] Nonparametric (semiquantitative) analysis of achieved time–activity curves (TACs) was performed with Microsoft Excel to determine the time to peak, the TAC peak value, and the area under the curve (AUC) [drawing 1] where c (radioactivity) is expressed as the standardized uptake value normalized to the bodyweight in g (SUV). […]
# [1] = male, Wistar, rat, in vivo, 60 min
# T1 sequence (P34972 whole entry D80N): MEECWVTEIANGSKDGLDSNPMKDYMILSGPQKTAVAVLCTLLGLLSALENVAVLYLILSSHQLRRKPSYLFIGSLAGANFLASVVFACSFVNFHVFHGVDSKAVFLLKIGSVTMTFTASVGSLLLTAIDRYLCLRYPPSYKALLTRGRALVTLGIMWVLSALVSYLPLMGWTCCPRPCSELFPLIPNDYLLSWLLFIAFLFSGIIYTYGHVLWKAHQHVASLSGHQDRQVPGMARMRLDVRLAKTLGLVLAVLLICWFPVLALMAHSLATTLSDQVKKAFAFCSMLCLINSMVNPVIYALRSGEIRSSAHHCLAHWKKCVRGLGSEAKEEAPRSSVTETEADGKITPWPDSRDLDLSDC
compound,measurement,setting,value
CC1(C)Cc2ccc(C#N)cc2[C@@H]1NC(=O)c1cc2cc([18F])ccc2[nH]1 [[^18F]RM365],reduction of the normalized AUC between 20 and 60 min p.i.,cerebellum as reference region,70%
same,reduction of the normalized AUC between 20 and 60 min p.i.,contralateral site as reference region,64%
same,SUVr target region-to-cerebellum,[1],20 ± 5
same,SUVr target region-to-contralateral,[1],15 ± 5

# — PMC10614203, “Synthesis, Structure–Activity Relationships, Radiofluorination, and Biological Evaluation of [^18F]RM365, a Novel Radioligand for Imaging the Human Cannabinoid Receptor Type 2 (CB2R) in the Brain with PET” (Journal of Medicinal Chemistry, 2023)
